From US12090220B2, “Efficient sunscreen compositions with diethylamino hydroxybenzoyl hexyl benzoate, butyl methoxydibenzoylmethane and organic particulate UV filter” (BASF SE, priority 2019, dated 2024)
Structures can show the parent of a compound that is named as a salt.

Experiments:
[1] = general description of the UV filter; cited from earlier work
[2] = Measurement of interfacial tension (polarity index) of emollients; assay type: physicochemical; conditions: interfacial tension emollient/water, Tensimat Densimat TD2000
Description: The term “polarity index” refers to non-polar or polar oils. Non-polar oils are mainly based on hydrocarbons and lack an electronegative element, such as oxygen. In contrast, polar oils contain heteroatoms that differ in electronegativity, which results in a dipole moment. However, such oils are still insoluble in water, i.e. hydrophob. The polarity index can be determined by measuring the interfacial tension between the respective oil and water.
Interfacial tension of the respective emollients as listed below was measured using a Tensimat Densimat TD2000.

Row | polarity index [2] | SMILES | absorption maximum [1]
1 |  | c1ccc(-c2ccc(-c3nc(-c4ccc(-c5ccccc5)cc4)nc(-c4ccc(-c5ccccc5)cc4)n3)cc2)cc1 [tris-biphenyl triazine, 2,4,6-Tris(biphenyl-4-yl)-1,3,5-triazine] | 310 nm
2 | 19 mN/m | CC(C)OC(=O)CCCCCCCCC(=O)OC(C)C [diisopropyl sebacate] | 
3 | 14 mN/m | CCCCOC(=O)CCCCC(=O)OCCCC [dibutyl adipate] | 
4 | 7 mN/m | CCOC(=O)CC(O)(CC(=O)OCC)C(=O)OCC [triethyl citrate] | 
5 |  | CCCCCCOC(=O)c1ccccc1C(=O)c1ccc(N(CC)CC)cc1O [DHHB, hexyl 2-[4-(diethylamino)-2-hydroxybenzoyl]benzoate] | 354 nm
6 |  | COc1ccc(C(=O)CC(=O)c2ccc(C(C)(C)C)cc2)cc1 [BMDBM, 1-(4-(1,1-dimethylethyl)phenyl)-3-(4-methoxyphenyl)propane-1,3-dione] | 357 nm
7 | 19 mN/m | O=C(OCCc1ccccc1)c1ccccc1 [phenethyl benzoate] | 
8 |  | CCCCC(CC)COC(=O)/C=C/c1ccc(OC)cc1 (centres unmarked) [ethylhexyl methoxy cinnamate, 2-Ethylhexyl-(2E)-3-(4-methoxyphenyl)acrylate] | 310 nm
9 | 10 mN/m | CCCCOC(=O)CC(O)(CC(=O)OCCCC)C(=O)OCCCC [tributyl citrate] | 
10 | 12 mN/m | CC(C)OC(=O)CCCCC(=O)OC(C)C [diisopropyl adipate] | 

Row | SMILES | polarity index [2] | absorption maximum [1]
11 | CCCCCCCCCCC(CO)CCCCCCCC (centres unmarked) [octyldodecanol] | 25 mN/m | 
